What was measured:
IRAK4 [1] = target: T1, IRAK4 (Homo sapiens, UniProt Q9NWZ3); experiment: detection of proteolysis by Hibit fluorescence (IRAK4 degradation); format: cell-based; set-up: host or cells: HEK293T cells (ATCC); conditions: for Dmax: HEK-293T; for DC50: Hibit, HEK293T cells transfected with HiBiT-tagged IRAK4 plasmid, 24 hours incubation
T1 sequence (Q9NWZ3 1-460): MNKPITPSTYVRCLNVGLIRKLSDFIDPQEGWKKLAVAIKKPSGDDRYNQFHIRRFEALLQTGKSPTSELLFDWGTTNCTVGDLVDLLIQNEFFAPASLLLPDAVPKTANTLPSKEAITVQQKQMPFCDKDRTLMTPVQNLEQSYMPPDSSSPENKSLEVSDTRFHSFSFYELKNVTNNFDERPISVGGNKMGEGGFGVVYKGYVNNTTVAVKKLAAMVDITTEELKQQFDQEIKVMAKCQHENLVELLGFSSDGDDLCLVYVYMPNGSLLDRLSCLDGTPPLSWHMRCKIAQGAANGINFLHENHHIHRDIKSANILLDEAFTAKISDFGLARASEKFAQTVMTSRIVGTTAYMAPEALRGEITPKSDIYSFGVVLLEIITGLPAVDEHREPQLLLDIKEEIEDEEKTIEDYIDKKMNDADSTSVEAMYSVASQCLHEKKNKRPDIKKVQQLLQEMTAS
Procedure: Using the HiBiT tag technology, the sequence containing the HiBiT tag (Seq. ID. No. 1, 5'-[…]-3', Beijing Tsingke Biotech Co., Ltd.) was ligated to the IRAK4 plasmid (Seq. ID. No. 2, 5'-Eco[…] NOT1-3', Beijing Tsingke Biotech Co., Ltd.). The plasmid was transfected into HEK293T cells (ATCC), and the HiBiT […] was measured to characterize the compound-induced IRAK4 degradation. 300,000 HEK293T cells in 1 mL of DMEM medium (Gbico, 11965-092) were seeded into a 6-well plate (Corning 3516) , followed by being placed overnight in a constant incubator at 37°C, 5% CO2. 3 µL X-tremeGENE™ 9 DNA Transfection Reagent (Roche #06365787001), and 1 µg IRAK4 plasmid were added to 200 µL Opti-MEM (Gibico 31985062), followed by gentle mixing. The 6-well plate that had been incubated overnight was taken out and allowed to stand at room temperature for 15 minutes, followed by dropwise addition to the 6-well plate. After transient transfection for 6 hours, cells were digested with trypsin (Gibco, 25200-056) for one minute, followed by centrifugation at 1000 rpm for 3 minutes. 5000 HEK293T cells in 40 µL DMEM medium were seeded into a 384-well plate (Corning 3765), followed by being placed overnight in a constant incubator at 37°C, 5% CO2. Then, 40 nL of the compound was added to the 384-well plate using an Echo 655 Liquid Handler, with a highest final concentration of 10 µM, and a 1:3 serial dilution to give a total of 10 concentrations, followed by incubation at 37°C, 5% CO2 for 24 hours. The 384-well plate was removed and equilibrated to room temperature. 40 µL Nano-Glo® HiBiT Lytic Detection System (Promega N3030) was added to each well. After incubation at room temperature for 15 minutes, the fluorescence values were recorded using EnVision Xcite Multilabel Reader (PerkinElmer 2105-0020). Data were fitted and analyzed using Prism 9.3 software with non-linear regression (non-liner inhibitor(Bell-shaped)) and a 4 parameter, with parameters as follows: • Span1=Plateau1[…] • Span2=Plateau2-Dip Section1 = Span1/(1+10^(∧)((LogEC50_1−X)*nH1)) [formula] Section2 = Span2/(1+10^(∧)((X−LogEC50_2)*nH2)) [formula]
(§1) The equation is as follows: Y=Dip+Section1+Section2.

IRAK4 [2] = target: T1, IRAK4; experiment: cell-based; format: cell-based; set-up: endogenous in cells; host or cells: THP-1 cells; conditions: for Dmax: THP-1; for DC50: WB, THP-1 cells, 24 hours incubation
Procedure: The degradation level of IRAK4 in THP-1 cells was detected by Western Blot technique. 1,000,000 THP-1 cells were seeded in a 12-well plate (Corning 3513) with 1 mL per well. A stock solution of the compound in 1000× gradient dilution was prepared, with a maximum concentration of 300 µM, and serially diluted with DMSO in 1:3, for a total of 9 doses. The compound in 1000× gradient dilution was added to the 12-well plate with 1 µL per well. After incubation under a condition of 37°C, 5% CO2 for 24 hours, the cells were collected into a 2 mL centrifuge tube, and centrifuged at 5,000 rpm for 5 minutes. The supernatant was discarded. 100 µL RIPA lysis solution (Beyotime, P0013C) was added. After mixing well, the cells were lysed on ice for 10 min, and centrifuged at 14,000 rpm at 4°C for 10 min. The supernatant was collected. Protein content was determined using BCA (Solarbio, PC0020-10*50T). 75 µL of the supernatant was taken, and 25 µL NuPAGE LDS Sample Buffer (4X) (Thermo B0007) (with 5% β-mercaptoethanol added before use) was added to each tube to prepare samples, followed by heating in a metal bath at 100°C for 5 min. 20 µL was loaded into a 4-12% Bis-Tris gel (Invitrogen, WG1402BOX) to prepare 1x NuPAGE™ MOPS buffer (Invitrogen, NP0001). The electrophoresis apparatus was set to a constant voltage of 120V for 1.5 hours. 1x NuPAGE™ MOPS SDS electrophoresis buffer (20X) (Invitrogen, NP0001) was prepared. The electrophoresis apparatus was set to a constant current of 300 mA for 100 minutes. The protein was transferred to a PVDF membrane (Millipore, IPVH00010). The PVDF membrane was blocked with a blocking solution (Licor, 927-60001) at room temperature for 1 h, IRAK4 antibody (Abcam ab32511) was diluted 1:1,000, GAPDH (Abcam ab8245) was diluted 1:3,000, and then the antibody was incubated overnight at 4°C. The next day, the membrane was washed three times with 1× TBST (Elabscience E-BC-R335), for 5 min each time. Secondary antibodies IR Dye 800 CW Goat anti-rabbit (Licor #926-32211) and IRDye® 680RD Goat anti-Mouse (Licor #926-68070) were diluted 1:10,000, followed by incubation in the dark at room temperature for 1 h. The membrane was washed three times with TBST, for 5 min each time. Using Odyssey imaging system Li-cor Odyssey Clx, signals were detected and data were analyzed. Data were analyzed using GraphPad (Prism 9.3) software with non-linear regression (non-liner inhibitor(Bell-shaped)) and a 4 parameter, with parameters as follows: • Span 1 =Plateau1-Dip • Span2=Plateau2-Dip Section1 = Span1/(1+10^(∧)((LogEC50_1−X)*nH1)) [formula] Section2 = Span2/(1+10^(∧)((X−LogEC50_2)*nH2)) [formula]
as §1

Compound	Dmax (IRAK4 [1]) [%]	DC50 (IRAK4 [1]) [nM]	Dmax (IRAK4 [2]) [%]	DC50 (IRAK4 [2]) [nM]	DC50 (IRAK4 [2]; read-out: DC50) [nM]
Cn1c(=O)n(C2CCC(=O)NC2=O)c2cccc(N3CCC4(CCN(C[C@H]5CC[C@H](n6nc(C(F)F)c7cc(-c8ccc9cc(C(N)=O)cnn89)ncc76)CC5)C4)CC3)c21 (some centres unmarked) [Compound 6]	> 80	< 0.5	> 70	< 10	–
Cn1c(=O)n(C2CCC(=O)NC2=O)c2cccc(N3CCC4(CCN(C[C@H]5CC[C@H](n6nc(C(F)F)c7cc(-c8ccc9cc(C(N)=O)cnn89)ncc76)CC5)CC4)C3)c21 (some centres unmarked) [Compound 3]	70 to 80	< 0.5	–	–	–
C[C@H]1CN(C2CCN(c3cccc4c3n(C)c(=O)n4C3CCC(=O)NC3=O)CC2)CCN1C[C@H]1CC[C@H](n2nc(C(F)F)c3cc(-c4ccc5cc(C(N)=O)cnn45)ncc32)CC1 (some centres unmarked) [Compound 13]	–	–	> 70	> 30	–
Cn1c(=O)n(C2CCC(=O)NC2=O)c2cccc(N[C@H]3CC[C@H](N(C)C[C@H]4CC[C@H](n5nc(C(F)F)c6cc(-c7ccc8cc(C(N)=O)cnn78)ncc65)CC4)CC3)c21 (some centres unmarked) [Compound 7]	60 to 70	< 0.5	–	–	–
Cn1c(=O)n(C2CCC(=O)NC2=O)c2cccc(-c3cnn(C4CCN(C[C@H]5CC[C@H](n6nc(C(F)F)c7cc(-c8ccc9cc(C(N)=O)cnn89)ncc76)CC5)CC4)c3)c21 (some centres unmarked) [Compound 11]	–	–	< 60	> 30	–
C[C@@H]1CN(C2CCN(c3cccc4c3n(C)c(=O)n4C3CCC(=O)NC3=O)CC2)CCN1C[C@H]1CC[C@H](n2nc(C(F)F)c3cc(-c4ccc5cc(C(N)=O)cnn45)ncc32)CC1 (some centres unmarked) [Compound 12]	–	–	60 to 70	> 30	–
Cn1c(=O)n(C2CCC(=O)NC2=O)c2cccc(N3CCC(N4CCN(C[C@H]5CC[C@H](n6nc(C(F)F)c7cc(-c8ccc9cc(C(N)=O)cnn89)ncc76)CC5)CC4)CC3)c21 (some centres unmarked) [Compound 2]	> 80	< 0.5	> 70	< 10	–
Cn1c(=O)n(C2CCC(=O)NC2=O)c2cccc(N3CCN(C[C@H]4CC[C@H](n5nc(C(F)F)c6cc(-c7ccc8cc(C(N)=O)cnn78)ncc65)CC4)CC3)c21 (some centres unmarked) [Compound 4]	< 60	1 to 5	–	–	–
Cn1nc(C2CCC(=O)NC2=O)c2cccc(N3CCC(N4CCN(C[C@H]5CC[C@H](n6nc(C(F)F)c7cc(-c8ccc9cc(C(N)=O)cnn89)ncc76)CC5)CC4)CC3)c21 (some centres unmarked) [Compound 19]	–	–	> 70	< 10	–
Cn1c(=O)n(C2CCC(=O)NC2=O)c2cccc(N3CCC4(CCN(C[C@H]5CC[C@H](n6nc(C(F)F)c7cc(-c8ccc9cc(C(N)=O)cnn89)ncc76)CC5)CC4)CC3)c21 (some centres unmarked) [Compound 1]	> 80	< 0.5	> 70	< 10	–
Cn1c(=O)n(C2CCC(=O)NC2=O)c2cccc(C#CCOC3CCN(C[C@H]4CC[C@H](n5nc(C(F)F)c6cc(-c7ccc8cc(C(N)=O)cnn78)ncc65)CC4)CC3)c21 (some centres unmarked) [Compound 8]	70 to 80	< 0.5	–	–	–
Cn1nc(C2CCC(=O)NC2=O)c2cccc(-c3cnn(C4CCN(C[C@H]5CC[C@H](n6nc(C(F)F)c7cc(-c8ccc9cc(C(N)=O)cnn89)ncc76)CC5)CC4)c3)c21 (some centres unmarked) [Compound 10]	–	–	> 70	< 10	–
Cn1nc(C2CCC(=O)NC2=O)c2cccc(N3CCC4(CCN(C[C@H]5CC[C@H](n6nc(C(F)F)c7cc(-c8ccc9cc(C(N)=O)cnn89)ncc76)CC5)C4)CC3)c21 (some centres unmarked) [Compound 20]	–	–	< 60	10 to 30	–
C[C@H]1CN(c2cccc3c2n(C)c(=O)n3C2CCC(=O)NC2=O)CCN1C[C@H]1CC[C@H](n2nc(C(F)F)c3cc(-c4ccc5cc(C(N)=O)cnn45)ncc32)CC1 (some centres unmarked) [Compound 9]	–	–	–	–	> 30
Cn1c(=O)n(C2CCC(=O)NC2=O)c2cccc(N3CCN(C4CCN(C[C@H]5CC[C@H](n6nc(C(F)F)c7cc(-c8ccc9cc(C(N)=O)cnn89)ncc76)CC5)CC4)CC3)c21 (some centres unmarked) [Compound 5]	> 80	< 0.5	60 to 70	< 10	–
C[C@@H]1CC2(CCN(c3cccc4c3n(C)c(=O)n4C3CCC(=O)NC3=O)CC2)CN1C[C@H]1CC[C@H](n2nc(C(F)F)c3cc(-c4ccc5cc(C(N)=O)cnn45)ncc32)CC1 (some centres unmarked) [Compound 17]	–	–	> 70	> 30	–
C[C@H]1CN(C[C@H]2CC[C@H](n3nc(C(F)F)c4cc(-c5ccc6cc(C(N)=O)cnn56)ncc43)CC2)CCN1C1CCN(c2cccc3c2n(C)c(=O)n3C2CCC(=O)NC2=O)CC1 (some centres unmarked) [Compound 22]	–	–	< 60	> 30	–

— patent publication EP4796548A1, “PROTEOLYSIS-TARGETING CHIMERA COMPOUND FOR DEGRADING IRAK4 AND USE THEREOF” (Dovetree Medicines Unus, Inc., priority 2023, dated 2025)
